The record followed here is patent US20230079819A1, “COMPOUNDS AND USES THEREOF” (Foghorn Therapeutics Inc., priority 2019, published 2023).

One assay concerns the target T1, BRG-1 (Homo sapiens, UniProt P51532).
T1 construct: made in house; host or cells: High Five insect cells
Briefly: ATPase catalytic activity of BRG-1, ADP-Glo in vitro biochemical assay. The conditions noted are these: ATPase catalytic activity, 30 nM BRG-1, 400 μM ATP, read-out: BRG1 IP50 (μM)*. A general note: In ADP-Glo the light output rises with the ADP produced.

A further assay deals with T2, BRM (Homo sapiens, UniProt P51531).
T2 construct: made in house; host or cells: High Five insect cells
T2 sequence (P51531 whole entry): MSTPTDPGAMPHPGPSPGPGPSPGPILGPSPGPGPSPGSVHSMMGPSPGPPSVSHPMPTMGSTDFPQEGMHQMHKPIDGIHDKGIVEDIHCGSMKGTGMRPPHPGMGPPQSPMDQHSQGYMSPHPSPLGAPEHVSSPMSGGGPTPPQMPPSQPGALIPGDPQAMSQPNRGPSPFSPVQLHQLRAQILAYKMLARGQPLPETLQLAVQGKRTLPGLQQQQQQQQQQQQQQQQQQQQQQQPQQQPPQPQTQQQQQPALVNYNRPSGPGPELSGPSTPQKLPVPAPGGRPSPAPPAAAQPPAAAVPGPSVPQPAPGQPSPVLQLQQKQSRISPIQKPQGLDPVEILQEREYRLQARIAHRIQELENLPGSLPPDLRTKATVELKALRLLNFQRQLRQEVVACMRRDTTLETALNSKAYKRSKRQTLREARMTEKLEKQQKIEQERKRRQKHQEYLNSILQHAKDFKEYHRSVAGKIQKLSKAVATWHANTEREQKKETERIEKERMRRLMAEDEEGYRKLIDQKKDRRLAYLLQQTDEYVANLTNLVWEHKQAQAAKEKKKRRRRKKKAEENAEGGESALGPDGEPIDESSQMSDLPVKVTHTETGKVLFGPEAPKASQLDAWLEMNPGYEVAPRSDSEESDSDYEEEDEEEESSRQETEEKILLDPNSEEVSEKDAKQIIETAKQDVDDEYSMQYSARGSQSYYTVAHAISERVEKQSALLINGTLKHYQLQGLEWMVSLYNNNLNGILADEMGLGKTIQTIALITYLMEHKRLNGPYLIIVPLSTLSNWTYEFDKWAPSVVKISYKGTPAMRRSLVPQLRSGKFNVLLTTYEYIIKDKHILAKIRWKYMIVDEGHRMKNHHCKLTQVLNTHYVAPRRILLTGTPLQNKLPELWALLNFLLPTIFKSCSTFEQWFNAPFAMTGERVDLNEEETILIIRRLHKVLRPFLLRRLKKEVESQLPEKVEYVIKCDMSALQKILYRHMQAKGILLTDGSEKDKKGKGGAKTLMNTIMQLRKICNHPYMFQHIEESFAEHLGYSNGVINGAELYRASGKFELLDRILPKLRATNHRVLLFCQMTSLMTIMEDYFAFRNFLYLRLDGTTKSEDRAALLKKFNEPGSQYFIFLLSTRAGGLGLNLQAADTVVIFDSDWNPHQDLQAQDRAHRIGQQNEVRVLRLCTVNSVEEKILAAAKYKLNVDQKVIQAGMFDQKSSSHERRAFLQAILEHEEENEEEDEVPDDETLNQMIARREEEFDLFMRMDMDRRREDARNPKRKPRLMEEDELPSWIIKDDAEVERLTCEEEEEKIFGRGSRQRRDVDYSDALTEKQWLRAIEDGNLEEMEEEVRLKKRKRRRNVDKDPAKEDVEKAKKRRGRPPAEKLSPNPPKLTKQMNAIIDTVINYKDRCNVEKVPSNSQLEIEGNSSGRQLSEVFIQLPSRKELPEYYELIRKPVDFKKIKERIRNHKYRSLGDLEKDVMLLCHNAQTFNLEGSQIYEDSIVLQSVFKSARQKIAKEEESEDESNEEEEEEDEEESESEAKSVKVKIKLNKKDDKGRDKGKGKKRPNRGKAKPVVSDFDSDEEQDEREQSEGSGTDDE
Kind of assay: ATPase catalytic activity of BRM, ADP-Glo in vitro biochemical assay. The note with it: ATPase catalytic activity, 30 nM BRM, 400 μM ATP, read-out: BRM IP50 (μM)*.

T1 sequence (P51532 whole entry): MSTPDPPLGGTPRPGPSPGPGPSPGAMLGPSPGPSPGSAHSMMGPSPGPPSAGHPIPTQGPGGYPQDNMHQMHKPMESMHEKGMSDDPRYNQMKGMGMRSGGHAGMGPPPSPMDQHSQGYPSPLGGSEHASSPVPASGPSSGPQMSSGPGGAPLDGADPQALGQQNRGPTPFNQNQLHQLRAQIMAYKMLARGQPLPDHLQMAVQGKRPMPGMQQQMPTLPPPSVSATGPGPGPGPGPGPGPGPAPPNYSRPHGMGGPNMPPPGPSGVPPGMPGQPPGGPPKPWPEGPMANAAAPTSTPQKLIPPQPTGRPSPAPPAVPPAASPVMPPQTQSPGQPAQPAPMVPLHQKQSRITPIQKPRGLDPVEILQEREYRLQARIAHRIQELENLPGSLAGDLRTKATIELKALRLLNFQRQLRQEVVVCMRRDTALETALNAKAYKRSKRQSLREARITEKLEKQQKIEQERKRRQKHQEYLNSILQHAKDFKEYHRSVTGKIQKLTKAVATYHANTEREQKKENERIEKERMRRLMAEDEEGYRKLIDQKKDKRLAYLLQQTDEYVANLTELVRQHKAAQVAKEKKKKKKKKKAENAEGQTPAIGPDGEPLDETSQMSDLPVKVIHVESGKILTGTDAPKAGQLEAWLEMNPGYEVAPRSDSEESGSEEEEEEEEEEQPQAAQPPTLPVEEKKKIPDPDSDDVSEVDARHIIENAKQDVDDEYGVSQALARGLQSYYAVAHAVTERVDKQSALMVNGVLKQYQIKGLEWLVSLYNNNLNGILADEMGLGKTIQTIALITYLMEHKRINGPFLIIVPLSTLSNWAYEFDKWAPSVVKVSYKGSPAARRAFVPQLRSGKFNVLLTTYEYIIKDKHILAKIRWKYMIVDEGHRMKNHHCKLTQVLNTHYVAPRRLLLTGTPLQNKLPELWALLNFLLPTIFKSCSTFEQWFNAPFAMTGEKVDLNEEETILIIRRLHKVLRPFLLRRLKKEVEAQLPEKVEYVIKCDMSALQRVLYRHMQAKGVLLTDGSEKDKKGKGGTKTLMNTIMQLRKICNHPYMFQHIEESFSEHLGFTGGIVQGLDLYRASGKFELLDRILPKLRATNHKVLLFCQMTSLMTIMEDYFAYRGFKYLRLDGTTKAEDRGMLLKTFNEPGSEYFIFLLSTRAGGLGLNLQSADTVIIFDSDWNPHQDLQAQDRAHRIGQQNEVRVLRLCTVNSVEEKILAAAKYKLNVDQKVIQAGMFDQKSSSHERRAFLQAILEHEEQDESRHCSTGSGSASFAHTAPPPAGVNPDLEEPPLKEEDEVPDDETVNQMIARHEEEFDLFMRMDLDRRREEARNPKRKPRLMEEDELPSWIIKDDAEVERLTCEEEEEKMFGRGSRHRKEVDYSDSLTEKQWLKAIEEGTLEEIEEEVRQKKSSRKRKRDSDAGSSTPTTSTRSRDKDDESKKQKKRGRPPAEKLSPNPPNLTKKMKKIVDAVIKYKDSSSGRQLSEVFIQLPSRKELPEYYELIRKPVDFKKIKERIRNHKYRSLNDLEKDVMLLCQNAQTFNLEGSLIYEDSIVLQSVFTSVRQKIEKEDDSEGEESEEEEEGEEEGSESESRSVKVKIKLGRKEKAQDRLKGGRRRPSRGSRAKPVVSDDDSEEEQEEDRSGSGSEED

In the case of `CS(=O)(=O)n1ccc(C(=O)NCC(=O)Nc2nc(-c3cc(Cl)cc(OC4CC4)c3)cs2)c1` [Compound 260], the IC50 on BRG-1 and on BRM was greater than 0.01 µM in each case.

Take `Cn1ncc(-c2cccc(-c3csc(NC(=O)CNC(=O)c4ccn(S(C)(=O)=O)c4)n3)c2)n1` [Compound 261]: the IC50 on BRG-1 and on BRM was less than 0.01 µM in each case.

As for `COc1ccncc1-c1cccc(-c2csc(NC(=O)CNC(=O)c3ccn(C4(C)COC4)c3)n2)n1` [Compound 262, N-[2-[[4-[6-(4-methoxy-3-pyridyl)-2-pyridyl]thiazol-2-yl]amino]-2-oxo-ethyl]-1-(3-methyloxetan-3-yl)pyrrole-3-carboxamide], the IC50 on BRG-1 and at BRM was greater than 0.01 µM each time.

Consider `CN1CCc2ccc(-c3csc(NC(=O)CNC(=O)c4ccn(C(C)(C)C)c4)n3)cc21` [Compound 263], for which the IC50 on BRG-1 and on BRM was greater than 0.01 µM throughout.

For `CS(=O)(=O)n1ccc(C(=O)NCC(=O)Nc2nc(-c3ccc4c(c3F)OCC4)cs2)c1` [Compound 264], the IC50 on BRG-1 and on BRM was greater than 0.01 µM each time.

For `CS(=O)(=O)n1ccc(C(=O)NCC(=O)Nc2nc(-c3cccc(OC4CC4)c3)cs2)c1` [Compound 265], the IC50 on BRG-1 and on BRM was greater than 0.01 µM throughout.

Consider `CS(=O)(=O)n1ccc(C(=O)NCC(=O)Nc2nc(-c3cccc(OCF)c3)cs2)c1` [Compound 266], for which the IC50 at BRG-1 and on BRM was greater than 0.01 µM in each case.

With `C[C@@H]1CN(c2cc(-c3csc(NC(=O)CNC(=O)c4ccn(S(C)(=O)=O)c4)n3)cc(C3CC3)c2)C[C@H](C)O1` [Compound 267], the IC50 on BRG-1 and on BRM was greater than 0.1 µM throughout.

Regarding `C[C@@H]1CN(c2cccc(-c3csc(NC(=O)CNC(=O)c4ccn(C5(C)COC5)c4)n3)c2F)C[C@H](C)O1` [Compound 268], the figures for the IC50 on BRG-1 and on BRM were greater than 0.1 µM and greater than 0.01 µM, respectively.

In the case of `C[C@@H]1CN(c2cccc(-c3csc(NC(=O)CNC(=O)c4ccn(C(C)(C)C)c4)n3)c2F)C[C@H](C)O1` [Compound 269], the IC50 on BRG-1 and on BRM was greater than 0.01 µM in each case.

As to `CN1CCc2ccc(-c3csc(NC(=O)CNC(=O)c4ccn(S(C)(=O)=O)c4)n3)cc21` [Compound 270], the IC50 on BRG-1 and at BRM was greater than 0.01 µM in each case.

`CC1(n2ccc(C(=O)NCC(=O)Nc3nc(-c4ccc5c(c4)OCC5)cs3)c2)COC1` [Compound 271]: the IC50 at BRG-1 is greater than 0.1 µM; at BRM, greater than 0.01 µM.

`CNc1cccc(-c2csc(NC(=O)CNC(=O)c3ccn(C(C)(C)C)c3)n2)c1` [Compound 272]: the IC50 at BRG-1 was greater than 0.1 µM; on BRM, greater than 0.01 µM.

As to `CN1CCCCc2ccc(-c3csc(NC(=O)CNC(=O)c4ccn(S(C)(=O)=O)c4)n3)cc21` [Compound 273], the IC50 on BRG-1 is greater than 0.1 µM; on BRM, greater than 0.01 µM.

`CS(=O)(=O)n1ccc(C(=O)NCC(=O)Nc2nc(-c3cccc(OC4CCCOC4)c3)cs2)c1` (stereo not drawn) [Compound 274]: the IC50 at BRG-1 and at BRM was greater than 0.01 µM in each case.

On to `CS(=O)(=O)n1ccc(C(=O)NCC(=O)Nc2nc(-c3cccc(-c4cn(C(F)F)nn4)c3)cs2)c1` [Compound 275], for which the IC50 on BRG-1 and at BRM was greater than 0.01 µM in each case.

In the case of `CS(=O)(=O)n1ccc(C(=O)NCC(=O)Nc2nc(-c3cccc(OC(F)(F)F)c3)cs2)c1` [Compound 276], the IC50 at BRG-1 and at BRM was greater than 0.01 µM throughout.

In the case of `CS(=O)(=O)n1ccc(C(=O)NCC(=O)Nc2nc(-c3cccc(-c4cnn(C5CC5)n4)c3)cs2)c1` [Compound 277], the IC50 at BRG-1 was greater than 0.01 µM; at BRM it was less than 0.01 µM.

Regarding `CS(=O)(=O)n1ccc(C(=O)NCC(=O)Nc2nc(-c3cccc(-c4cnnn4C(F)F)c3)cs2)c1` [Compound 278], the IC50 at BRG-1 and at BRM was greater than 0.01 µM in each case.

On to `CS(=O)(=O)n1ccc(C(=O)NCC(=O)Nc2nc(-c3cccc(OC4CCOCC4)c3)cs2)c1` [Compound 279], for which the IC50 at BRG-1 and at BRM was greater than 0.01 µM in each case.

In the case of `CNc1cccc(-c2csc(NC(=O)CNC(=O)c3ccn(S(C)(=O)=O)c3)n2)c1` [Compound 280], the IC50 at BRG-1 and at BRM was greater than 0.01 µM each time.

Consider `CC(C)Oc1cccc(-c2csc(NC(=O)CNC(=O)c3ccn(S(C)(=O)=O)c3)n2)c1` [Compound 281], for which the IC50 at BRG-1 and on BRM was greater than 0.01 µM throughout.

As for `CN1CCOc2ccc(-c3csc(NC(=O)CNC(=O)c4ccn(S(C)(=O)=O)c4)n3)cc21` [Compound 282], the IC50 at BRG-1 and at BRM was less than 0.01 µM throughout.

As for `CN1CCOc2ccc(-c3csc(NC(=O)CNC(=O)c4ccn(C(C)(C)C)c4)n3)cc21` [Compound 283], the IC50 at BRG-1 and on BRM was greater than 0.01 µM in each case.

Consider `CS(=O)(=O)n1ccc(C(=O)NCC(=O)Nc2nc(-c3cccc(OC4CCC4)c3)cs2)c1` [Compound 284], for which the IC50 at BRG-1 and on BRM was greater than 0.01 µM throughout.

Take `CS(=O)(=O)n1ccc(C(=O)NCC(=O)Nc2nc(-c3cccc(OC(F)F)c3)cs2)c1` [Compound 285]: the IC50 on BRG-1 and on BRM was greater than 0.01 µM throughout.

With `CCOc1cccc(-c2csc(NC(=O)CNC(=O)c3ccn(S(C)(=O)=O)c3)n2)c1` [Compound 286], the IC50 on BRG-1 and at BRM was greater than 0.01 µM each time.

With `CN(C)c1cccc(-c2csc(NC(=O)CNC(=O)c3ccn(S(C)(=O)=O)c3)n2)c1` [Compound 287], the IC50 at BRG-1 was greater than 0.01 µM; at BRM, less than 0.01 µM.

Regarding `CN(C)c1cccc(-c2csc(NC(=O)CNC(=O)c3ccn(C(C)(C)C)c3)n2)c1` [Compound 288], the IC50 on BRG-1 and on BRM was greater than 0.01 µM throughout.

`CS(=O)(=O)n1ccc(C(=O)NCC(=O)Nc2nc(-c3cccc(-c4cnn(C(F)F)n4)c3)cs2)c1` [Compound 289]: the IC50 at BRG-1 and at BRM was greater than 0.01 µM throughout.

As for `CS(=O)(=O)n1ccc(C(=O)NCC(=O)Nc2nc(-c3cccc(N4CC[C@@H](N)[C@H](F)C4)c3)cs2)c1` [Compound 290], the figures for the IC50 on BRG-1 and on BRM were greater than 0.01 µM and less than 0.01 µM, respectively.

Turning to `C[C@@H]1C[C@@H](COc2cccc(-c3csc(NC(=O)CNC(=O)c4ccn(S(C)(=O)=O)c4)n3)c2)C[C@H](C)O1` [Compound 291], the IC50 at BRG-1 and on BRM was greater than 0.01 µM throughout.

With `C[C@@H]1C[C@H](COc2cccc(-c3csc(NC(=O)CNC(=O)c4ccn(S(C)(=O)=O)c4)n3)c2)C[C@H](C)O1` [Compound 292], the IC50 at BRG-1 and on BRM was greater than 0.1 µM throughout.

On to `C[C@@H]1CN(c2cc(-c3csc(NC(=O)CNC(=O)c4ccn(S(C)(=O)=O)c4)n3)ccc2F)C[C@H](C)O1` [Compound 293], for which the IC50 on BRG-1 and at BRM was less than 0.01 µM each time.

`C[C@@H]1CN(c2cccc(-c3csc(NC(=O)CNC(=O)c4ccn(S(C)(=O)=O)c4)n3)c2F)C[C@H](C)O1` [Compound 294]: the IC50 at BRG-1 and on BRM was greater than 0.01 µM throughout.

Regarding `C[C@@H]1CN(c2cc(F)cc(-c3csc(NC(=O)CNC(=O)c4ccn(S(C)(=O)=O)c4)n3)c2)C[C@H](C)O1` [Compound 295], the IC50 at BRG-1 and at BRM was less than 0.01 µM in each case.

Consider `Cc1cc(-c2cccc(-c3csc(NC(=O)CNC(=O)c4ccn(S(C)(=O)=O)c4)n3)c2)on1` [Compound 296], for which the IC50 at BRG-1 and on BRM was greater than 0.01 µM throughout.

Consider `C[C@@H]1CN(c2ccc(F)c(-c3csc(NC(=O)CNC(=O)c4ccn(S(C)(=O)=O)c4)n3)c2)C[C@H](C)O1` [Compound 297], for which the IC50 on BRG-1 is greater than 0.1 µM; at BRM, greater than 0.01 µM.

On to `CS(=O)(=O)n1ccc(C(=O)NCC(=O)Nc2nc(-c3cccc(C4CCC4)c3)cs2)c1` [Compound 298], for which the IC50 on BRG-1 and at BRM was greater than 0.01 µM throughout.

In the case of `C[C@@H]1CN(c2cc(-c3csc(NC(=O)CNC(=O)c4ccn(C(C)(C)C)c4)n3)ccn2)C[C@H](C)O1` [Compound 299], the IC50 at BRG-1 was greater than 0.01 µM; on BRM it was less than 0.01 µM.

In the case of `CS(=O)(=O)n1ccc(C(=O)NCC(=O)Nc2nc(-c3cccc(OC[C@H]4CCOC4)c3)cs2)c1` [Compound 303, 1-methylsulfonyl-N-[2-oxo-2-[[4-[3-[[(3S)-tetrahydrofuran-3-yl]methoxy]phenyl]thiazol-2-yl]amino]ethyl]pyrrole-3-carboxamide], the figures for the IC50 at BRG-1 and at BRM were greater than 0.01 µM and less than 0.01 µM, respectively.

On to `CS(=O)(=O)n1ccc(C(=O)NCC(=O)Nc2nc(-c3cccc(OC[C@@H]4CCOC4)c3)cs2)c1` [Compound 304, 1-methylsulfonyl-N-[2-oxo-2-[[4-[3-[[(3R)-tetrahydrofuran-3-yl]methoxy]phenyl]thiazol-2-yl]amino]ethyl]pyrrole-3-carboxamide], for which the IC50 on BRG-1 and at BRM was greater than 0.01 µM in each case.

With `CN1CCCc2ccc(-c3csc(NC(=O)CNC(=O)c4ccn(C(C)(C)C)c4)n3)cc21` [Compound 305], the IC50 at BRG-1 and on BRM was greater than 0.01 µM throughout.

Consider `CN1CCCc2ccc(-c3csc(NC(=O)CNC(=O)c4ccn(S(C)(=O)=O)c4)n3)cc21` [Compound 306], for which the IC50 on BRG-1 and at BRM was greater than 0.01 µM throughout.

Take `CS(=O)(=O)n1ccc(C(=O)NCC(=O)Nc2nc(-c3cccc(OCC4CCC4)c3)cs2)c1` [Compound 307]: the IC50 at BRG-1 and at BRM was greater than 0.01 µM in each case.

Turning to `CC(C)(C)n1ccc(C(=O)NCC(=O)Nc2nc(-c3ccc4c(c3)OCC4)cs2)c1` [Compound 308], the IC50 on BRG-1 and at BRM was greater than 0.01 µM each time.

Consider `CS(=O)(=O)n1ccc(C(=O)NCC(=O)Nc2nc(-c3ccc4c(c3)OCC4)cs2)c1` [Compound 309], for which the IC50 at BRG-1 and on BRM was greater than 0.01 µM throughout.

For the molecule `CO[C@H]1CCCN(c2cccc(-c3csc(NC(=O)CNC(=O)c4ccn(C(C)(C)C)c4)n3)n2)C1` [Compound 311], the IC50 on BRG-1 and at BRM was greater than 0.01 µM in each case.
